Assay results as given in patent US8440710B2, “HSL inhibitors useful in the treatment of diabetes” (Hoffmann-La Roche Inc., priority 2009, dated 2013).
pIC50: −log10 of the molar value.

Target: T1, human HSL (Homo sapiens, UniProt Q05469)
T1 construct: generate a full length human HSL ORF with a 3′-His6 tag; made in house; host or cells: High 5 insect cells (baculovirus, pFast-BAC)
T1 sequence (Q05469 1-1076): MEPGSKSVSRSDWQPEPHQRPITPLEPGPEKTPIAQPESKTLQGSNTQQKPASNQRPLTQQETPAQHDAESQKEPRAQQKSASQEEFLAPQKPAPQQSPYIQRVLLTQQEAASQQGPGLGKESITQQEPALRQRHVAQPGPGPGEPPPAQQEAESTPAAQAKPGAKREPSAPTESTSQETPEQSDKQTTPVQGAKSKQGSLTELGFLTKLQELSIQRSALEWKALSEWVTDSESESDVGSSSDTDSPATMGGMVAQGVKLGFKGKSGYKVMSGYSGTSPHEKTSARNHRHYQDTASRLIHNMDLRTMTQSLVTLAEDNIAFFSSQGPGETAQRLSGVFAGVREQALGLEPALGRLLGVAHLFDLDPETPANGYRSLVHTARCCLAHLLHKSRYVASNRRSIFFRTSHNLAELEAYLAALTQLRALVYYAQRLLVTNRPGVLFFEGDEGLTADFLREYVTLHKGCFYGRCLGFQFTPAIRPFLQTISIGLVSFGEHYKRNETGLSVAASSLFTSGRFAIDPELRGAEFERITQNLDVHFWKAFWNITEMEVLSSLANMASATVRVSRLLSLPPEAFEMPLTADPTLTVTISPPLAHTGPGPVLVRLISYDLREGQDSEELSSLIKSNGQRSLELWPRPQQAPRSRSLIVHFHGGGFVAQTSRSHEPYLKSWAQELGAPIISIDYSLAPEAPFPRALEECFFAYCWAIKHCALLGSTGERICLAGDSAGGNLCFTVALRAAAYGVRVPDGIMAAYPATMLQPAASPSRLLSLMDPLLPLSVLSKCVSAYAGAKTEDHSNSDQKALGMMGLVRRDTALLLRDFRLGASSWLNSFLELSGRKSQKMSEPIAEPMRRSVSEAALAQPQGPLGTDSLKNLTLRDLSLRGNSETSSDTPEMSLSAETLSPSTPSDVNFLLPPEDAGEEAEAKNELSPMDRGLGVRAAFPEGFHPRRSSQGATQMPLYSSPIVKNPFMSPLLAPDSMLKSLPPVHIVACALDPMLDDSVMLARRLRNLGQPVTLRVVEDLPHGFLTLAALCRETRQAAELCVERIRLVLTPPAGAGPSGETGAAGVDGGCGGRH
Assay: Human Hormone-Sensitive Lipase (HSL) enzyme inhibition assay (colorimetric, DMPT substrate)
Format: biochemical
Settings: human full length HSL-His6, 2,3-dimercapto-1-propanol tributyrate substrate, 37° C. 20 minutes, absorbance at 405 nm; read-out: HSL hum IC50
Experimental: Production of Human Full Length Hormone Sensitive Lipase-His^6:
1) Cloning: cDNA was prepared from commercial human brain polyA+ RNA and used as a template in overlapping PCR to generate a full length human HSL ORF with a 3′-His6 tag. This full length insert was cloned into the pFast-BAC vector and the DNA-sequence of several single clones was verified. DNA from a correct full length clone with the 3′His6 tag was used to transform the E. coli strain DH10BAC. Resulting bacmid DNA was used to generate a titered baculovirus stock for protein generation. The sequence of the encoded HSL conforms to Swissprot entry Q05469, with the additional C-terminal His6-tag. 2) Protein purification: Culture: 5.5 L, High 5 cells expressing human full length HSL-His^6, 48 hr., containing 25 μM E-64. Cell count: […], 90% viable. Cells were thawed. On ice, cells were suspended in Base Buffer containing 10% glycerol, 25 mM Tris-Cl, 300 mM NaCl, 10 mM imidazole, 10 mM 2-mercaptoethanol, 2 μg pepstatin/ml, 2 μg leupeptin/ml, 2 μg antipain/ml, pH 8.0 at 4° C. in a final volume of 475 ml with 3.75×10^7 cells/ml. […] was done at 3×30 sec., Lubrol PX was added to 0.2% final concentration followed by stirring for 15 min. at 4° C. and centrifugation at 25 k×g, 60 min., 4° C. Soluble proteins were mixed with 60 ml of pre-washed and equilibrated Ni-NTA Agarose (Qiagen 30210) followed by tumbling end-over-end, 45 min., 4° C., centrifugation 1000 rpm 5 min and letting resin settle 5 min. Supernatant was removed, the resin washed in the centrifuge vessel using 5 volumes of Base Buffer containing 0.2% Lubrol PX. Centrifugation was done again, then the supernatant discarded. The resin was poured onto a 0.8 μm membrane in a disposable filter unit (Nalge 450-0080), and washed with 5 volumes of Base Buffer containing 0.2% Lubrol PX. It was then washed with 30 volumes of Base Buffer containing 60 mM imidazole pH 7.5 at 4° C. The protein was eluated with 5 volumes of 25 mM Tris-Cl, 300 mM NaCl, 200 mM imidazole, 10 mM 2-mercaptoethanol, pH 7.5 at 4° C. by tumbling resin with buffer end-over-end, 30 min., 4° C. The resin was captured on a 0.2 μm membrane disposable filter unit (Millipore SCGP U02 RE) and the eluate collected in the reservoir. The eluate was concentrated using a 30 k MWCO centrifugal filter device (Sartorius Vivascience Vivacell 100, VC1022), to 20 ml. It was then dialyzed overnight at 4° C., two times against 2 L of 10% glycerol, 25 mM Tris-Cl, 300 mM NaCl, 0.2 mM EDTA, 0.2 mM DTT, pH 7.5 at 4° C. The protein was filtered using a 0.22 μm disposable filter unit (Millipore SCGP00525). The protein concentration was calculated from absorbance at 280 nm, using 280=0.67 cm-1 mg-1. Yield was 235 mg, total. The protein was stored at −80° C. Human Hormone-Sensitive Lipase (HSL) Enzyme Inhibition Assay:
HSL enzyme activity was measured by a colorimetric assay using 2,3-dimercapto-1-propanol tributyrate (Aldrich, St. Louis, Mo.) as a substrate. Typically, 1.5 mM 2,3-dimercapto-1-propanol tributyrate (DMPT) in 100 mM MOPS, pH 7.2, 0.2 mg/ml fatty acid-free BSA was prepared by sonication at 4° C. to homogenous suspension. Test compounds (2 mM stock in DMSO) were diluted 3 fold in series in DMSO. Compound solutions were diluted 24 fold in 1.5 mM DMPT containing solution and 18 ul per well was added to 384-well microplates (Corning Costar). Twelve microliters per well of human HSL (15 ug/ml) was added and the reaction mixture was incubated at 37° C. for 20 minutes. Six microliters of 12 mM dithio-bis-(2-nitrobenzoic acid) (DTNB) in DMSO plus 1.2% SDS and 0.6% Triton X-100 were added and the mixture was incubated at room temperature for 15 minutes. Product production was monitored by reading absorbance at 405 nm on an Envision Reader (PerkinElmer Life and Analytical Sciences, Shelton, Conn.).

| Compound | pIC50 |
| --- | --- |
| CNC(=O)O[C@H]1CC[C@@]2(CCN(c3ccc(OC(F)(F)F)cc3)C2=O)CC1 [Example 17, Methyl-carbamic acid [(5α,8β)-1-oxo-2-(4-trifluoromethoxy-phenyl)-2-aza-spiro[4.5]dec-8-yl]ester] | 7.10 |
| O=C(NCCc1ccccc1)O[C@H]1CC[C@@]2(CCN(c3ccc(OC(F)(F)F)cc3)C2=O)CC1 [Example 18, Phenethyl-carbamic acid [(5α,8β)-1-oxo-2-(4-trifluoromethoxy-phenyl)-2-aza-spiro[4.5]dec-8-yl]ester] | 7.22 |
| O=C1N(c2ccc(OC(F)(F)F)cc2)CC[C@]12CC[C@@H](Oc1cnccn1)CC2 [Example 19, (5α,8β)-8-(Pyrazin-2-yloxy)-2-(4-trifluoromethoxy-phenyl)-2-aza-spiro[4.5]decan-1-one] | 6.85 |
| O=C1N(c2ccc(OC(F)(F)F)cc2)CC[C@]12CC[C@@H](Oc1ncccn1)CC2 [Example 20, (5α,8β)-8-(Pyrimidin-2-yloxy)-2-(4-trifluoromethoxy-phenyl)-2-aza-spiro[4.5]decan-1-one] | 7.00 |
| Cc1ccc(O[C@H]2CC[C@@]3(CCN(c4ccc(OC(F)(F)F)cc4)C3=O)CC2)nn1 [Example 21, (5α,8β)-8-(6-Methyl-pyridazin-3-yloxy)-2-(4-trifluoromethoxy-phenyl)-2-aza-spiro[4.5]decan-1-one] | 7.00 |
| O=C(NCC1CC1)O[C@H]1CC[C@@]2(CCN(c3ccc(OC(F)(F)F)cc3)C2=O)CC1 [Example 22, (Cyclopropylmethyl)-carbamic acid [(5α,8β)-1-oxo-2-(4-trifluoromethoxy-phenyl)-2-aza-spiro[4.5]dec-8-yl]ester] | 7.22 |
| COCCO[C@H]1CC[C@@]2(CCN(c3ccc(OC(F)(F)F)cc3)C2=O)CC1 [Example 23, (5α,8β)-8-(2-Methoxy-ethoxy)-2-(4-trifluoromethoxy-phenyl)-2-aza-spiro[4.5]decan-1-one] | 6.72 |
| CCO[C@H]1CC[C@@]2(CCN(c3ccc(OC(F)(F)F)cc3)C2=O)CC1 [Example 24, (5α,8β)-8-Ethoxy-2-(4-trifluoromethoxy-phenyl)-2-aza-spiro[4.5]decan-1-one] | 6.43 |
| Cc1cnc(CNC(=O)O[C@H]2CC[C@@]3(CCN(c4ccc(OC(F)(F)F)cc4)C3=O)CC2)cn1 [Example 25, (5-Methyl-pyrazin-2-ylmethyl)-carbamic acid [(5α,8β)-1-oxo-2-(4-trifluoromethoxy-phenyl)-2-aza-spiro[4.5]dec-8-yl]ester] | 7.10 |
| CC(C)(O)CNC(=O)O[C@H]1CC[C@@]2(CCN(c3ccc(OC(F)(F)F)cc3)C2=O)CC1 [Example 26, (2-Hydroxy-2-methyl-propyl)-carbamic acid [(5α,8β)-1-oxo-2-(4-trifluoromethoxy-phenyl)-2-aza-spiro[4.5]dec-8-yl]ester] | 6.96 |
| O=C(NCCO)O[C@H]1CC[C@@]2(CCN(c3ccc(OC(F)(F)F)cc3)C2=O)CC1 [Example 27, (2-Hydroxy-ethyl)-carbamic acid [(5α,8β)-1-oxo-2-(4-trifluoromethoxy-phenyl)-2-aza-spiro[4.5]dec-8-yl]ester] | 6.74 |
| O=C(NCc1cnccn1)O[C@H]1CC[C@@]2(CCN(c3ccc(OC(F)(F)F)cc3)C2=O)CC1 [Example 28, (Pyrazin-2-ylmethyl)-carbamic acid [(5α,8β)-1-oxo-2-(4-trifluoromethoxy-phenyl)-2-aza-spiro[4.5]dec-8-yl]ester] | 7.10 |
| O=C(NC1CC1)O[C@H]1CC[C@@]2(CCN(c3ccc(OC(F)(F)F)cc3)C2=O)CC1 [Example 29, Cyclopropyl-carbamic acid [(5α,8β)-1-oxo-2-(4-trifluoromethoxy-phenyl)-2-aza-spiro[4.5]dec-8-yl]ester] | 7.10 |
| NC(=O)O[C@H]1CC[C@@]2(CCN(c3ccc(OC(F)(F)F)cc3)C2=O)CC1 [Example 30, Carbamic acid [(5α,8β)-1-oxo-2-(4-trifluoromethoxy-phenyl)-2-aza-spiro[4.5]dec-8-yl]ester] | 6.60 |
| COc1ccc(N2CC[C@]3(CC[C@H](O)CC3)C2=O)cc1 [Example 31, (5α,8α)-8-Hydroxy-2-(4-methoxy-phenyl)-2-aza-spiro[4.5]decan-1-one] | 4.62 |
| CCc1ccc(N2CC[C@]3(CC[C@H](O)CC3)C2=O)cc1 [Example 32, (5α,8α)-2-(4-Ethyl-phenyl)-8-hydroxy-2-aza-spiro[4.5]decan-1-one] | 6.05 |
| O=C1N(CCc2ccc(F)cc2)CC[C@]12CC[C@H](O)CC2 [Example 33, (5α,8α)-2-[2-(4-Fluoro-phenyl)-ethyl]-8-hydroxy-2-aza-spiro[4.5]decan-1-one] | 5.22 |
| CCc1ccc(CCN2CC[C@]3(CC[C@H](O)CC3)C2=O)cc1 [Example 34, (5α,8α)-2-[2-(4-Ethyl-phenyl)-ethyl]-8-hydroxy-2-aza-spiro[4.5]decan-1-one] | 6.10 |
| COc1ccc(CCN2CC[C@]3(CC[C@H](O)CC3)C2=O)cc1 [Example 35, (5α,8α)-8-Hydroxy-2-[2-(4-methoxy-phenyl)-ethyl]-2-aza-spiro[4.5]decan-1-one] | 4.78 |
| CCCc1ccc(N2CC[C@]3(CC[C@H](O)CC3)C2=O)cc1 [Example 37, (5α,8α)-8-Hydroxy-2-(4-propyl-phenyl)-2-aza-spiro[4.5]decan-1-one] | 6.68 |
| CC(C)c1ccc(N2CC[C@]3(CC[C@H](O)CC3)C2=O)cc1 [Example 38, (5α,8α)-8-Hydroxy-2-(4-isopropyl-phenyl)-2-aza-spiro[4.5]decan-1-one] | 6.62 |
